The source made the active and inactive calls. The calls are words filed in the database; no cut-off is given here.
How the values were obtained:
[1] = molecular target: T1, Adenosine receptor A1 (Homo sapiens, UniProt P30542); assay: Displacement of [3H]-DPCPX from human adenosine A1 receptor expressed in CHO cells by scintillation counting analysis; assay type: cell-based
T1 sequence (P30542 whole entry): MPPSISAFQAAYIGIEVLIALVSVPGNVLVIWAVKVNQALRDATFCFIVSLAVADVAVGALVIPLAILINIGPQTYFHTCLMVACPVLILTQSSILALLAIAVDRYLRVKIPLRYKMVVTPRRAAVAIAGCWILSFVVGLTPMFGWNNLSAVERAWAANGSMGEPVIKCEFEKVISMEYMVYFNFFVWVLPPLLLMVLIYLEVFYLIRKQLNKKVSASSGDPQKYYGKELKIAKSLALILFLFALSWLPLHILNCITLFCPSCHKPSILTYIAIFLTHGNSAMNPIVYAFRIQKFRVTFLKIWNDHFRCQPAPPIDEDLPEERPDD

[2] = molecular target: T2, Adenosine receptor A2a (Homo sapiens, UniProt P29274); assay: Displacement of [3H]ZM241385 from human adenosine A2A receptor expressed in CHO cells by scintillation counting analysis; assay type: cell-based
[3] = molecular target: T3, Adenosine receptor A3 (Homo sapiens, UniProt P0DMS8); assay: Displacement of [3H]AB-MECA from human adenosine A3 receptor expressed in CHO cells by scintillation counting analysis; assay type: cell-based
T3 sequence (P0DMS8 whole entry): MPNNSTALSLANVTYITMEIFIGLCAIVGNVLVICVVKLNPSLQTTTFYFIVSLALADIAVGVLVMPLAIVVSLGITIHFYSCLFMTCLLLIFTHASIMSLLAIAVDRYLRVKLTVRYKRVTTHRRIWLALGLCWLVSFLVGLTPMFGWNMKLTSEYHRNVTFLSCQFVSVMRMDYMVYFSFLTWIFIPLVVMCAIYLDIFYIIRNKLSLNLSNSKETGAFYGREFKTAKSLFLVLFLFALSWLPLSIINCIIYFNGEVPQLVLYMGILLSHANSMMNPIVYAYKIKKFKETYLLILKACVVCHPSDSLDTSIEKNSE

[4] = molecular target: T4, Adenosine receptor A2b (Homo sapiens) (UniProt P29275); assay: Antagonist activity at human adenosine A2B receptor expressed in CHO cells assessed as inhibition of NECA-stimulated cAMP level at 1 uM by scintillation counting analysis; assay type: functional, cell-based
T4 sequence (whole entry): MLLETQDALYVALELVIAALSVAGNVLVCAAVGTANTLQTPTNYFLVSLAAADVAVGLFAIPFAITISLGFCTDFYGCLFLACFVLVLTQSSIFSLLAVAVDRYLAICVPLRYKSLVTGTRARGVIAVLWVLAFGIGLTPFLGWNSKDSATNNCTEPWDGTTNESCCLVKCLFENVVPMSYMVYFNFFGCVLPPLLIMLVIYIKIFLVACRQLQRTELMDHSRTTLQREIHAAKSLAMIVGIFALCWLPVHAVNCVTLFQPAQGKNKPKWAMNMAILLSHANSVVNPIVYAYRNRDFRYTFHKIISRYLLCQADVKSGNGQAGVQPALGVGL

[5] = molecular target: T5, Adenosine receptor A1 (Homo sapiens) (UniProt P30542); assay: Displacement of [3H]-DPCPX from human adenosine A1 receptor expressed in CHO cells at 1 uM by scintillation counting analysis relative to control; assay type: cell-based
T5 sequence (whole entry): T1 sequence (P30542 whole entry)

[6] = molecular target: T2, Adenosine receptor A2a; assay: Displacement of [3H]ZM241385 from human adenosine A2A receptor expressed in CHO cells at 1 uM by scintillation counting analysis relative to control; assay type: cell-based
[7] = molecular target: T6, Adenosine receptor A3 (Homo sapiens) (UniProt P0DMS8); assay: Displacement of [3H]AB-MECA from human adenosine A3 receptor expressed in CHO cells at 1 uM by scintillation counting analysis relative to control; assay type: cell-based
T6 sequence (whole entry): T3 sequence (P0DMS8 whole entry)

[8] = molecular target: T7, Adenosine receptor A2b (Homo sapiens, UniProt P29275); assay: Antagonist activity at human adenosine A2B receptor expressed in CHO cells assessed as inhibition of NECA-stimulated cAMP level by scintillation counting analysis; assay type: functional, cell-based
T7 sequence (P29275 whole entry): T4 sequence (whole entry)

[9] = molecular target: T5, Adenosine receptor A1 (Homo sapiens); settings: CHO, 100 nM
Description: Antagonist activity at human adenosine A1 receptor expressed in CHO cells assessed as inhibition of CCPA-stimulated cAMP level at 100 nM by scintillation counting analysis

[10] = molecular target: T1, Adenosine receptor A1; assay: Antagonist activity at human adenosine A1 receptor expressed in CHO cells assessed as inhibition of CCPA-stimulated cAMP level by scintillation counting analysis; assay type: functional, cell-based
[11] = molecular target: T2, Adenosine receptor A2a; assay: Antagonist activity at human adenosine A2A receptor expressed in CHO cells assessed as inhibition of NECA-stimulated cAMP level by scintillation counting analysis; assay type: functional, cell-based

T2 sequence (P29274 whole entry): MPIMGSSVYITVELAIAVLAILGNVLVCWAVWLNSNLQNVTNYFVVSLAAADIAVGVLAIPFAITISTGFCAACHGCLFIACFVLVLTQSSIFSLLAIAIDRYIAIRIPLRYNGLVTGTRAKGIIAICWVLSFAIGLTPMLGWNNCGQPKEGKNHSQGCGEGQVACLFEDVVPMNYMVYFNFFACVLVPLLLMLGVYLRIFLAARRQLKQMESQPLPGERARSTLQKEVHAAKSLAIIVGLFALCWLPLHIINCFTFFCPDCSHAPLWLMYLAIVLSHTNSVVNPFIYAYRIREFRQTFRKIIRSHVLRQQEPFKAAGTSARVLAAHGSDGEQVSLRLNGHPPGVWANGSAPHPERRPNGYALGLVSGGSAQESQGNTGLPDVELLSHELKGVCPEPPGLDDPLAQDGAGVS

| Compound | Ki [1] | Ki [2] | Ki [3] | inhibition [4] | inhibition [5] | inhibition [6] | inhibition [7] | IC50 [8] | inhibition [9] | IC50 [10] | IC50 [11] |
| --- | --- | --- | --- | --- | --- | --- | --- | --- | --- | --- | --- |
| Nc1nc(Cc2ccccc2O)nc2cn(-c3ccccc3)nc12 | 64 nM | 89 nM | 97 nM | 1% |  |  |  |  |  |  |  |
| Nc1nc(Cc2cccc(O)c2)nc2cn(-c3ccccc3)nc12 | 312 nM | 521 nM | 435 nM | 1% |  |  |  |  |  |  |  |
| Nc1nc(Cc2ccc(O)cc2)nc2cn(-c3ccccc3)nc12 |  |  |  | 4% | 39% | 44% | 20% |  |  |  |  |
| C=CCOc1ccc(CCCc2nc(N)c3nn(-c4ccccc4)cc3n2)cc1 |  |  |  | 3% | 40% | 15% | 3% |  |  |  |  |
| CC(C)Cc1nc(N)c2nn(-c3ccccc3)cc2n1 |  |  |  | 1% | 49% | 50% | 13% |  |  |  |  |
| Nc1nc(Cc2cccc(C(F)(F)F)c2)nc2cn(-c3ccccc3)nc12 |  |  |  | 1% | 1% | 21% | 41% |  |  |  |  |
| CC(C)c1nc(N)c2nn(-c3ccccc3)cc2n1 |  |  |  | 5% | 2% | 22% | 11% |  |  |  |  |
| CCc1nc(N)c2nn(-c3ccccc3)cc2n1 | 90 nM |  |  | 49% |  | 38% | 38% |  |  |  |  |
| Nc1nc(CCc2ccc(O)cc2)nc2cn(-c3ccccc3)nc12 | 420 nM |  |  | 7% |  | 30% | 37% |  |  |  |  |
| Nc1ncnc2cn(-c3ccccc3)nc12 | 80 nM | 410 nM |  |  |  |  | 4% | 630 nM |  |  |  |
| Nc1nc(CCCc2ccc(OCc3ccccc3)cc2)nc2cn(-c3ccccc3)nc12 |  |  |  | 8% | 14% | 3% | 2% |  |  |  |  |
| Cc1ccc(Cc2nc(N)c3nn(-c4ccccc4)cc3n2)cc1 |  |  |  | 21% | 38% | 26% | 39% |  |  |  |  |
| Nc1nc(Cc2ccc3c(c2)OCO3)nc2cn(-c3ccccc3)nc12 | 75 nM |  |  | 1% |  | 2% | 14% |  |  |  |  |
| COc1ccc(Cc2nc(N)c3nn(-c4ccccc4)cc3n2)cc1 |  |  |  | 5% | 48% | 20% | 38% |  |  |  |  |
| OC[C@H]1O[C@@H](n2cnc3c(NC4CCCC4)nc(Cl)nc32)[C@H](O)[C@@H]1O |  |  |  |  |  |  |  |  | Active |  |  |
| Nc1nc(Cc2ccc(Cl)cc2)nc2cn(-c3ccccc3)nc12 |  |  |  | 1% | 49% | 1% | 11% |  |  |  |  |

| Compound | Ki [1] | Ki [2] | Ki [3] | inhibition [4] | inhibition [5] | inhibition [6] | inhibition [7] | IC50 [8] | inhibition [9] | IC50 [10] | IC50 [11] |
| --- | --- | --- | --- | --- | --- | --- | --- | --- | --- | --- | --- |
| Nc1nc(Cc2cccc(Cl)c2)nc2cn(-c3ccccc3)nc12 |  |  |  | 1% | 32% | 6% | 42% |  |  |  |  |
| COc1ccc(CCCc2nc(N)c3nn(-c4ccccc4)cc3n2)cc1 | 16 nM | 790 nM |  | 30% |  |  | 1% |  |  |  |  |
| Nc1nc(Cc2ccccc2F)nc2cn(-c3ccccc3)nc12 | 35 nM | 154 nM |  |  |  |  | 37% | 123 nM |  |  |  |
| COc1cccc(CCCc2nc(N)c3nn(-c4ccccc4)cc3n2)c1 | 0.15 nM | 147 nM |  |  |  |  | 33% | 334 nM |  | 2.41 nM |  |
| Nc1nc(CCCc2ccccc2O)nc2cn(-c3ccccc3)nc12 | 0.54 nM | 102 nM |  |  |  |  | 36% | 247 nM |  | 4.26 nM |  |
| Nc1nc(CCCc2cccc(O)c2)nc2cn(-c3ccccc3)nc12 | 0.22 nM | 146 nM |  |  |  |  | 46% | 314 nM |  | 2.87 nM |  |
| Cc1cccc(Cc2nc(N)c3nn(-c4ccccc4)cc3n2)c1 |  |  |  | 21% | 41% | 31% | 11% |  |  |  |  |
| Nc1nc(Cc2ccccc2Cl)nc2cn(-c3ccccc3)nc12 | 155 nM |  |  | 3% |  | 44% | 22% |  |  |  |  |
| COc1ccc(CCc2nc(N)c3nn(-c4ccccc4)cc3n2)cc1 | 380 nM |  |  | 9% |  | 13% | 22% |  |  |  |  |
| Nc1nc(CCCc2ccccc2)nc2cn(-c3ccccc3)nc12 | 5.31 nM | 55 nM |  | 42% |  |  | 12% | 432 nM |  | 43 nM | 423 nM |
| Nc1nc(CCCc2ccc(O)cc2)nc2cn(-c3ccccc3)nc12 | 18 nM | 722 nM |  | 5% |  |  | 20% |  |  |  |  |
| Nc1nc(CCc2ccccc2)nc2cn(-c3ccccc3)nc12 |  |  |  | 2% | 15% | 35% | 17% |  |  |  |  |
| COc1ccccc1Cc1nc(N)c2nn(-c3ccccc3)cc2n1 | 375 nM | 213 nM | 572 nM | 1% |  |  |  |  |  |  |  |
| COc1cccc(Cc2nc(N)c3nn(-c4ccccc4)cc3n2)c1 | 90 nM |  |  | 1% |  | 14% | 37% |  |  |  |  |
| Nc1nc(/C=C/c2ccccc2)nc2cn(-c3ccccc3)nc12 | 480 nM |  |  | 7% |  | 21% | 25% |  |  |  |  |
| COc1ccccc1CCCc1nc(N)c2nn(-c3ccccc3)cc2n1 | 1.31 nM | 153 nM |  |  |  |  | 47% | 387 nM |  | 12 nM |  |

Reference: ChEMBL document CHEMBL3352340, “7-Amino-2-phenylpyrazolo[4,3-d]pyrimidine derivatives: structural investigations at the 5-position to target human A₁ and A(2A) adenosine receptors. Molecular modeling and pharmacological studies” (Eur J Med Chem, 2014)
